In patent publication USRE38117E1, “Trioxane dimer compound having antiproliferative and antitumor activities” (Hauser, Inc., priority 1995, dated 2003):

Assays:
Format in all cases: cell-based
CCRF-CEM = assay: NCI 60 cell line screen (SRB), Leukemia
HL-60(TB) = assay: NCI 60 cell line screen (SRB), Leukemia; conditions: HL-60(TB) (Leukemia)
K-562 = assay: NCI 60 cell line screen (SRB), Leukemia; conditions: K-562 (Leukemia)
HOP-62 = assay: NCI 60 cell line screen (SRB), Non-Small Cell Lung Cancer; conditions: HOP-62 (Non-Small Cell Lung Cancer)
NCI-H23 = assay: as above
NCI-H522 = assay: as above
HCT-15 = assay: NCI 60 cell line screen (SRB), Colon Cancer; conditions: HCT-15 (Colon Cancer)
HT29 = assay: NCI 60 cell line screen (SRB), Colon Cancer
KM12 = assay: NCI 60 cell line screen (SRB), Colon Cancer
SW-620 = assay: NCI 60 cell line screen (SRB), Colon Cancer; conditions: SW-620 (Colon Cancer)
SF-268 = assay: NCI 60 cell line screen (SRB), CNS Cancer; conditions: SF-268 (CNS Cancer)
SF-539 = assay: NCI 60 cell line screen (SRB), CNS Cancer; conditions: SF-539 (CNS Cancer)
LOX IMVI = assay: NCI 60 cell line screen (SRB), Melanoma
SK-MEL-28 = assay: NCI 60 cell line screen (SRB), Melanoma; conditions: SK-MEL-28 (Melanoma)
UACC-257 = assay: NCI 60 cell line screen (SRB), Melanoma; conditions: UACC-257 (Melanoma)
IGROVI = assay: NCI 60 cell line screen (SRB), Ovarian Cancer
OVCAR-4 = assay: NCI 60 cell line screen (SRB), Ovarian Cancer; conditions: OVCAR-4 (Ovarian Cancer)
SK-OV-3 = assay: NCI 60 cell line screen (SRB), Ovarian Cancer; conditions: SK-OV-3 (Ovarian Cancer)
A498 = assay: NCI 60 cell line screen (SRB), Renal Cancer
ACHN = assay: NCI 60 cell line screen (SRB), Renal Cancer
CAKI-1 = assay: NCI 60 cell line screen (SRB), Renal Cancer; conditions: CAKI-1 (Renal Cancer)
RXF 393 = assay: NCI 60 cell line screen (SRB), Renal Cancer; conditions: RXF 393 (Renal Cancer)
SN12C = assay: NCI 60 cell line screen (SRB), Renal Cancer
TK-10 = assay: NCI 60 cell line screen (SRB), Renal Cancer; conditions: TK-10 (Renal Cancer)
PC-3 = assay: NCI 60 cell line screen (SRB), Prostate Cancer; conditions: PC-3 (Prostate Cancer)
MDA-MB-435 = assay: NCI 60 cell line screen (SRB), Breast Cancer; conditions: MDA-MB-435 (Breast Cancer)
MDA-N = assay: NCI 60 cell line screen (SRB), Breast Cancer
[1] = system: murine keratinocyte cell line PE; assay: Growth inhibition of PE cells (MTT assay); conditions: murine keratinocytes, FIGS. 1-9

`COC1OC2(C)CCC3CCCC(CCOC(=O)c4cccc(C(=O)OCCC5CCCC6CCC7(C)OOC56C(OC)O7)c4)C31OO2` (stereo not drawn) [Compound 10, Trioxane Bis-ester Dimer] gave a Log10GI50 (CCRF-CEM) of −7.15 M, a Log10LC50 (CCRF-CEM) greater than −4.30 M and a Log10TGI (CCRF-CEM) of −5.70 M. It also gave a Log10GI50 (HL-60(TB)) of −7.21 M, a Log10LC50 (HL-60(TB)) greater than −4.30 M and a Log10TGI (HL-60(TB)) of −6.56 M. For the same compound, the Log10GI50 (K-562) was −6.79 M, the Log10LC50 (K-562) was greater than −4.30 M and the Log10TGI (K-562) was −5.35 M. For the same compound, the Log10GI50 (HOP-62) was −5.11 M, the Log10LC50 (HOP-62) was greater than −4.30 M and the Log10TGI (HOP-62) was greater than −4.30 M. The Log10GI50 (NCI-H23) was −6.29 M, the Log10LC50 (NCI-H23) was greater than −4.30 M and the Log10TGI (NCI-H23) was greater than −4.30 M. The Log10GI50 (NCI-H522) was −6.13 M, the Log10LC50 (NCI-H522) was greater than −4.30 M and the Log10TGI (NCI-H522) was greater than −4.30 M. For the same compound, the Log10GI50 (HCT-15) was −6.14 M, the Log10LC50 (HCT-15) was greater than −4.30 M and the Log10TGI (HCT-15) was greater than −4.30 M. The Log10GI50 (HT29) was −6.35 M, the Log10LC50 (HT29) was greater than −4.30 M and the Log10TGI (HT29) was greater than −4.30 M. For the same compound, the Log10GI50 (KM12) was −5.97 M, the Log10LC50 (KM12) was greater than −4.30 M and the Log10TGI (KM12) was greater than −4.30 M. The Log10GI50 (SW-620) was −6.47 M, the Log10LC50 (SW-620) was greater than −4.30 M and the Log10TGI (SW-620) was greater than −4.30 M. It also gave a Log10GI50 (SF-268) of −5.36 M, a Log10LC50 (SF-268) greater than −4.30 M and a Log10TGI (SF-268) greater than −4.30 M. It also gave a Log10GI50 (SF-539) of −6.11 M, a Log10LC50 (SF-539) greater than −4.30 M and a Log10TGI (SF-539) greater than −4.30 M. For the same compound, the Log10GI50 (LOX IMVI) was −6.27 M, the Log10LC50 (LOX IMVI) was greater than −4.30 M and the Log10TGI (LOX IMVI) was greater than −4.30 M. The Log10GI50 (SK-MEL-28) was −4.94 M, the Log10LC50 (SK-MEL-28) was greater than −4.30 M and the Log10TGI (SK-MEL-28) was greater than −4.30 M. It also gave a Log10GI50 (UACC-257) of −5.03 M, a Log10LC50 (UACC-257) greater than −4.30 M and a Log10TGI (UACC-257) greater than −4.30 M. The Log10GI50 (IGROVI) was −5.34 M, the Log10LC50 (IGROVI) was greater than −4.30 M and the Log10TGI (IGROVI) was −4.42 M. The Log10GI50 (OVCAR-4) was greater than −4.0 M, the Log10LC50 (OVCAR-4) was greater than −4.30 M and the Log10TGI (OVCAR-4) was greater than −4.30 M. It also gave a Log10LC50 (SK-OV-3) greater than −4.30 M, a Log10TGI (SK-OV-3) greater than −4.30 M and a Log10GI50 (A498) greater than −4.30 M. For the same compound, the Log10LC50 (A498) was greater than −4.30 M, the Log10TGI (A498) was greater than −4.30 M and the Log10GI50 (ACHN) was −5.85 M. It also gave a Log10LC50 (ACHN) greater than −4.30 M, a Log10TGI (ACHN) greater than −4.30 M and a Log10GI50 (CAKI-1) of −5.66 M. The Log10LC50 (CAKI-1) was greater than −4.30 M, the Log10TGI (CAKI-1) was greater than −4.30 M and the Log10GI50 (RXF 393) was greater than −4.30 M. It also gave a Log10LC50 (RXF 393) greater than −4.30 M, a Log10TGI (RXF 393) greater than −4.30 M and a Log10GI50 (SN12C) of −5.73 M. It also gave a Log10LC50 (SN12C) greater than −4.30 M, a Log10TGI (SN12C) greater than −4.30 M and a Log10GI50 (TK-10) of −5.39 M. The Log10LC50 (TK-10) was greater than −4.30 M, the Log10TGI (TK-10) was greater than −4.30 M and the Log10GI50 (PC-3) was −7.09 M. For the same compound, the Log10LC50 (PC-3) was greater than −4.30 M, the Log10TGI (PC-3) was greater than −4.30 M and the Log10GI50 (MDA-MB-435) was −5.93 M. For the same compound, the Log10LC50 (MDA-MB-435) was greater than −4.30 M, the Log10TGI (MDA-MB-435) was greater than −4.30 M and the Log10GI50 (MDA-N) was −5.97 M. For the same compound, the Log10LC50 (MDA-N) was greater than −4.30 M, the Log10TGI (MDA-N) was greater than −4.30 M and the antiproliferative activity [1] was “high antiproliferative activity”.
